Measured values reported in ChEMBL document CHEMBL1201862, “PubChem BioAssay data set” (2004).
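These data come from cells grown in 96-well plates and exposed to compound for 48 hours at five concentrations. Abbreviation: GI50, concentration required for 50% inhibition of growth.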 Calls of active or inactive are those of the source. No stated cut-off is given here; in the data, active = GI50 up to about 1.1 µM and inactive = higher.

How the values were obtained:
Assay in all cases: NCI-60 cell line screen, 48 h
[1] = system: SK-MEL-2
[2] = system: OVCAR-8
[3] = system: OVCAR-4
[4] = system: SK-MEL-5
[5] = system: CCRF-CEM
[6] = system: SN12C
[7] = system: HOP-92
[8] = system: HCT-15
[9] = system: HOP-62
[10] = system: K562
[11] = system: UACC-62
[12] = system: A549
[13] = system: SR
[14] = system: KM12
[15] = system: TK-10
[16] = system: CAKI-1
[17] = system: NCI-H460
[18] = system: UACC-257
[19] = system: HL-60
[20] = system: SF-539

SMILES | GI50 [1] | GI50 [2] | GI50 [3] | GI50 [4] | GI50 [5] | GI50 [6] | GI50 [7] | GI50 [8] [µM] | GI50 [9] | GI50 [10] | GI50 [11] | GI50 [12] | GI50 [13] | GI50 [14] | GI50 [15] | GI50 [16] | GI50 [17] | GI50 [18] | GI50 [19] | GI50 [20]
CSC1=N/C(=C\c2ccccc2)C(=O)N1CN1CCCCC1 | > 100 µM (inactive) | 30.1 µM (inactive) | 16.4 µM (inactive) | 43.1 µM (inactive) | 52.5 µM (inactive) | > 100 µM (inactive) | 11.7 µM (inactive) | > 10 | > 100 µM (inactive) | 26.7 µM (inactive) | 58.3 µM (inactive) | 87.7 µM (inactive) | 31.3 µM (inactive) | 65 µM (inactive) | 99.3 µM (inactive) |  |  |  |  | 
Cc1c(-c2cc3n(n2)C(c2cccs2)C(C#N)=C(c2ccccc2)N3)c(=O)n(-c2ccccc2)n1C (stereo not drawn) | 51.6 µM (inactive) | > 100 µM (inactive) | > 87.9 µM (inactive) | 28.8 µM (inactive) | > 95.1 µM (inactive) | > 80.2 µM (inactive) | 36 µM (inactive) | 84.1 | > 100 µM (inactive) | > 100 µM (inactive) | > 100 µM (inactive) | > 100 µM (inactive) |  | 94.2 µM (inactive) |  | 11.1 µM (inactive) | 76.9 µM (inactive) | 49.2 µM (inactive) | 48.9 µM (inactive) | > 100 µM (inactive)
CNc1cc2c(c3ccccc13)C(CCl)CN2C(=O)c1cc2cc(OC)c(OC)c(OC)c2[nH]1 (stereo not drawn) | 0.00785 µM (active) | 0.00123 µM (active) | < 0.01 µM (active) | 0.00146 µM (active) | 0.00053 µM (active) | 0.000881 µM (active) | 0.00484 µM (active) | 0.00137 | 0.00281 µM (active) | 0.00188 µM (active) | 0.000588 µM (active) | 0.00153 µM (active) | 0.000275 µM (active) | 0.0038 µM (active) | 0.00218 µM (active) | 0.000703 µM (active) | 0.000212 µM (active) | 0.00541 µM (active) | 0.000123 µM (active) | 0.00196 µM (active)
Cc1ccc2nc(C(C)C)c(=O)[nH]c2c1 | 15 µM (inactive) | 26.1 µM (inactive) | 71.9 µM (inactive) | > 100 µM (inactive) | > 100 µM (inactive) | > 100 µM (inactive) | > 100 µM (inactive) | > 100 | 17.2 µM (inactive) | > 100 µM (inactive) | > 100 µM (inactive) | 57 µM (inactive) | > 100 µM (inactive) | 31.8 µM (inactive) | > 100 µM (inactive) | 43.4 µM (inactive) | > 100 µM (inactive) | > 100 µM (inactive) | > 100 µM (inactive) | 85.1 µM (inactive)
O=c1[nH]c2ccc([N+](=O)[O-])cc2nc1/C(=N/Nc1ccccc1)C(O)c1ccco1 (stereo not drawn) | > 100 µM (inactive) | > 100 µM (inactive) | 66.2 µM (inactive) | 25.8 µM (inactive) | 16.6 µM (inactive) | > 100 µM (inactive) | > 100 µM (inactive) | 18.2 | > 100 µM (inactive) | 35.2 µM (inactive) | 32.2 µM (inactive) | 69.3 µM (inactive) | 66.2 µM (inactive) | 33.6 µM (inactive) | > 100 µM (inactive) |  | > 100 µM (inactive) | > 100 µM (inactive) | 25.2 µM (inactive) | > 100 µM (inactive)
CCOP(=O)(OCC)C1CC(C)OC1=O (stereo not drawn) | > 100 µM (inactive) | > 100 µM (inactive) | > 100 µM (inactive) | > 100 µM (inactive) | > 100 µM (inactive) | > 100 µM (inactive) |  | > 100 | > 100 µM (inactive) | > 100 µM (inactive) | > 100 µM (inactive) | > 100 µM (inactive) |  | > 100 µM (inactive) | > 100 µM (inactive) | > 100 µM (inactive) | > 100 µM (inactive) | > 100 µM (inactive) | > 100 µM (inactive) | > 100 µM (inactive)
O=C(N/N=C/c1cc(-c2ccccc2Cl)c(-c2ccccc2Cl)o1)c1ccncc1 | > 100 µM (inactive) |  | > 100 µM (inactive) |  |  | > 100 µM (inactive) | > 100 µM (inactive) |  | > 100 µM (inactive) | > 10 µM (inactive) | > 100 µM (inactive) | > 100 µM (inactive) |  |  | > 100 µM (inactive) | > 100 µM (inactive) |  | > 100 µM (inactive) | 89.7 µM (inactive) | > 100 µM (inactive)
C/C(=N\NC(=O)c1ccncc1)c1cccc(C(F)(F)F)c1 |  | > 10 µM (inactive) | > 10 µM (inactive) | > 10 µM (inactive) | > 10 µM (inactive) | > 10 µM (inactive) | > 10 µM (inactive) | > 10 | > 10 µM (inactive) | > 10 µM (inactive) | > 10 µM (inactive) | > 10 µM (inactive) | > 10 µM (inactive) | > 10 µM (inactive) | > 10 µM (inactive) | > 10 µM (inactive) | > 10 µM (inactive) | > 10 µM (inactive) | > 10 µM (inactive) | > 10 µM (inactive)
CCN(CC)CCSc1nc(-c2c[nH]c3nc(C)ccc3c2=O)n[nH]1 | > 100 µM (inactive) | > 100 µM (inactive) | > 100 µM (inactive) | > 100 µM (inactive) | > 100 µM (inactive) | > 100 µM (inactive) |  | > 100 | > 100 µM (inactive) | > 100 µM (inactive) | > 100 µM (inactive) | > 100 µM (inactive) |  | > 100 µM (inactive) | > 100 µM (inactive) | > 100 µM (inactive) | > 100 µM (inactive) | > 100 µM (inactive) | > 100 µM (inactive) | 
N=C(N)c1csc([C@@H]2O[C@H](CO)[C@@H](O)[C@H]2O)n1 | > 100 µM (inactive) | > 100 µM (inactive) | > 100 µM (inactive) | > 100 µM (inactive) | > 100 µM (inactive) | > 100 µM (inactive) |  | > 100 |  | > 100 µM (inactive) |  | > 100 µM (inactive) | > 100 µM (inactive) | > 100 µM (inactive) | > 100 µM (inactive) | > 100 µM (inactive) | > 100 µM (inactive) | > 100 µM (inactive) | > 100 µM (inactive) | > 100 µM (inactive)
OCc1cc2ccncc2c2c1[nH]c1ccccc12 | 12.1 µM (inactive) | 4.95 µM (inactive) | 6.95 µM (inactive) | 8 µM (inactive) | 7.33 µM (inactive) | 5.42 µM (inactive) | 12.1 µM (inactive) | 5.64 |  | 7.55 µM (inactive) |  | 4.37 µM (inactive) | 2.83 µM (inactive) | 4.68 µM (inactive) | 11.8 µM (inactive) | 4.65 µM (inactive) | 2.76 µM (inactive) | 14.8 µM (inactive) | 4.84 µM (inactive) | 3.72 µM (inactive)
CC1=NN(C(=O)c2ccccc2)C(=O)C1/N=N/c1ccccc1C(=O)O (stereo not drawn) | 6.21 µM (inactive) | 7.87 µM (inactive) | 5.62 µM (inactive) | 34 µM (inactive) | 3.81 µM (inactive) | 7.26 µM (inactive) | 4.11 µM (inactive) | 4.85 | 6.15 µM (inactive) | 2.54 µM (inactive) | 3.1 µM (inactive) | 3.77 µM (inactive) |  | 7.8 µM (inactive) |  | 6.53 µM (inactive) | 3.67 µM (inactive) |  | 3.53 µM (inactive) | 3.78 µM (inactive)
Cc1c2cc[n+](C)cc2c(COC2OC(CO)C(O)C2O)c2c3ccccc3n(C)c12 (stereo not drawn) | > 100 µM (inactive) | 99.1 µM (inactive) | > 100 µM (inactive) | 61.8 µM (inactive) | > 87.9 µM (inactive) | 6.85 µM (inactive) | 77.6 µM (inactive) | > 100 | 58.6 µM (inactive) | > 100 µM (inactive) | > 96.8 µM (inactive) | 74.3 µM (inactive) |  | > 100 µM (inactive) |  | > 100 µM (inactive) | 19.2 µM (inactive) | > 100 µM (inactive) | > 100 µM (inactive) | 90.4 µM (inactive)
N#C/C(=C/NC(=S)c1ccncc1)C(N)=O | > 100 µM (inactive) | > 100 µM (inactive) | > 100 µM (inactive) | > 100 µM (inactive) |  | > 100 µM (inactive) | > 100 µM (inactive) | > 100 | > 100 µM (inactive) |  | > 100 µM (inactive) | > 100 µM (inactive) |  | > 100 µM (inactive) | > 100 µM (inactive) | > 100 µM (inactive) | > 100 µM (inactive) | > 100 µM (inactive) | > 100 µM (inactive) | > 100 µM (inactive)
CNC(=O)OCc1nc(SC)n(C)c1CO | > 46.9 µM (inactive) | > 100 µM (inactive) | > 100 µM (inactive) | > 100 µM (inactive) | > 100 µM (inactive) | > 100 µM (inactive) | > 100 µM (inactive) | > 100 | > 100 µM (inactive) | > 100 µM (inactive) | > 100 µM (inactive) | > 100 µM (inactive) |  | > 100 µM (inactive) |  | > 100 µM (inactive) | > 100 µM (inactive) | > 100 µM (inactive) | > 100 µM (inactive) | > 100 µM (inactive)
O=C1CC2(CCC(O)(c3ccccc3)C(C(=O)c3ccccc3)C2)C(=O)c2ccccc2N1 (stereo not drawn) | > 100 µM (inactive) | > 100 µM (inactive) | 38.2 µM (inactive) | > 100 µM (inactive) | 46.8 µM (inactive) | > 100 µM (inactive) | 93.5 µM (inactive) | > 100 | > 100 µM (inactive) | > 100 µM (inactive) | > 100 µM (inactive) | > 100 µM (inactive) | > 100 µM (inactive) |  | > 100 µM (inactive) | > 100 µM (inactive) | > 100 µM (inactive) | > 100 µM (inactive) | > 100 µM (inactive) | > 100 µM (inactive)
